Laboratory results taken from patent US4657861A, “S-tetrahydroprotoberberineoxidase, process for producing the same and use thereof” (priority 1984, dated 1987).
Like-named read-outs stand apart in the source and are kept apart here. Blank lines part the entries; values can stand above or below the molecule they belong to.

Assays:
[1] = biological target: T1, S-tetrahydroprotoberberineoxidase (Berberis wilsoniae, UniProt F1BVB6); assay: Enzymatic oxidation of R,S-substrates with S-tetrahydroprotoberberineoxidase preparation, photometric analysis; conditions: 37° C.; for Fate of R-form under enzymatic oxidation: pH=8.9; for Conversion of S-form into oxidized product: pH=8.9, admission of air
[2] = biological target: T1, S-tetrahydroprotoberberineoxidase; conditions: pH 8.9
[3] = biological target: T1, S-tetrahydroprotoberberineoxidase; assay: Inhibition of S-tetrahydroprotoberberineoxidase; assay type: biochemical, Berberis wilsonae var. subcaulialata; parameters: S-tetrahydroprotoberberineoxidase can be obtained by extraction from plant materials; from tissue; host or cells: plant material (Berberis wilsoniae inferred)
[4] = biological target: T1, S-tetrahydroprotoberberineoxidase; assay: KM value of S-tetrahydroprotoberberineoxidase for substrate; assay type: biochemical, Berberis wilsonae var. subcaulialata; parameters: S-tetrahydroprotoberberineoxidase can be obtained by extraction from plant materials; from tissue; host or cells: plant material (Berberis wilsoniae inferred); conditions: at 40° C. and pH 8.9
Method: KM value for R,S-corypalmine at 40° C. and pH 8.9, 1.3 μMoles

[5] = biological target: T2, S-tetrahydroprotoberberineoxidase immobilized on calcium alginate (Berberis wilsoniae, UniProt F1BVB6); assay: Enzymatic oxidation with S-tetrahydroprotoberberineoxidase immobilized on calcium alginate, photometric analysis; assay type: biochemical, Berberis wilsonae var. subcaulialata; conditions: immobilized enzyme, 30° C., 150 hours, pH=8.9, admission of air
T2 construct: S-tetrahydroprotoberberineoxidase can be obtained by extraction from plant materials; from tissue; host or cells: plant material (Berberis wilsoniae inferred)
T2 sequence (F1BVB6 25-530): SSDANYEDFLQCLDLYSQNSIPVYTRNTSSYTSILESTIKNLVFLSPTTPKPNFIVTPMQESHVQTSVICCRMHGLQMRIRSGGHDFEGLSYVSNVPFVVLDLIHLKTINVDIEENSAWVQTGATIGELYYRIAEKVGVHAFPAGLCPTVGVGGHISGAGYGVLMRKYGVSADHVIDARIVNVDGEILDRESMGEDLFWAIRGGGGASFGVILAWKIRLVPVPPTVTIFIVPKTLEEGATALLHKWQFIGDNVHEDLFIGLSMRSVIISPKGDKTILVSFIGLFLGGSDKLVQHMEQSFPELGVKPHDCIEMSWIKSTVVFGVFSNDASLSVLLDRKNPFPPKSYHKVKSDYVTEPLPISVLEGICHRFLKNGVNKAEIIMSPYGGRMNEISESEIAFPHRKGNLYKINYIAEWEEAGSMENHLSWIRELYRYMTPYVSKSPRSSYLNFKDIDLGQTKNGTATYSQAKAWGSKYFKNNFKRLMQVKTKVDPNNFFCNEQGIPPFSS

Compound: COc1cc2c(cc1O)CCN1Cc3c(ccc(OC)c3OC)C[C@H]21 [R-corypalmine]
- Fate of R-form under enzymatic oxidation ([1]; after 2 hours): remained unchanged

Compound: COc1ccc2c(c1OC)CN1CCc3cc4c(cc3[C@@H]1C2)OCO4 [S-canadine]
- Conversion of S-form into oxidized product ([1]; after 2 hours): 100%

Compound: COc1cc2c(cc1O)CCN1Cc3c(ccc(OC)c3OC)C[C@@H]21 [S-corypalmine]
- Conversion of S-form into oxidized product ([2]; 2 h): 100%

Compound: COc1ccc(C[C@H]2NCCc3cc(OC)c(O)cc32)cc1O [R-norreticuline]
- Fate of R-form under enzymatic oxidation ([1]; after 16 hours): remained unchanged

Compound: COc1ccc2c(c1OC)CN1CCc3cc4c(cc3[C@H]1C2)OCO4 [R-canadine]
- Fate of R-form under enzymatic oxidation ([1]; after 2 hours): remained unchanged

Compound: COc1ccc(C[C@@H]2NCCc3cc(OC)c(O)cc32)cc1O [S-norreticuline]
- Conversion to 1,2-dehydronorreticuline [5]: complete conversion
- Conversion of S-form into oxidized product ([1]; after 16 hours): 100%

Compound: CC(=O)CC(C)=O [acetylacetone]
- Inhibition of the enzyme in the presence of the substance [3]: Complete and reversible inhibition

Now from value to molecule:

- Conversion of S-form into oxidized product ([2]; 16 h): 100%
Compound: COc1ccc2c(c1)CCN[C@H]2Cc1cc(O)cc(O)c1 [S-[1-(3',5'-dihydroxy-benzyl)-6-methoxy-1,2,3,4-tetrahydroisoquinoline]]

- Inhibition of the enzyme in the presence of the substance [3]: Complete and reversible inhibition
Compound: O=c1c(O)c(-c2ccc(O)cc2O)oc2cc(O)cc(O)c12 [morin]

- Km [4]: 1.3 µM
Compound: COc1cc2c(cc1O)CCN1Cc3c(ccc(OC)c3OC)CC21 (racemic) [R,S-corypalmine]

- Fate of R-form under enzymatic oxidation ([1]; after 16 hours): remained unchanged
Compound: COc1ccc2c(c1)CCN[C@@H]2Cc1cc(O)cc(O)c1 [R-form]
